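Dose response: 5 concentrations. Exposure: 48 h. Format: 96-well plates. Endpoint: linear interpolation; highest concentration if not reached. Here, GI50 denotes the concentration required for 50% inhibition of growth. Definition used: TGI = concentration required for complete inhibition of growth.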
Legend:
Experiment in all cases: NCI-60 cell line screen, 48 h
SNB-75 CNS = tested on: SNB-75 CNS
HOP-92 NSCLC = tested on: HOP-92 NSCLC
CCRF-CEM leukemia = tested on: CCRF-CEM leukemia
SR leukemia = tested on: SR leukemia
SNB-19 CNS = tested on: SNB-19 CNS
SK-MEL-28 melanoma = tested on: SK-MEL-28 melanoma
OVCAR-4 ovarian = tested on: OVCAR-4 ovarian
HCT-15 colon = tested on: HCT-15 colon
NCI-H23 lung = tested on: NCI-H23 lung
SN12C renal = tested on: SN12C renal
NCI/ADR-RES ovarian = tested on: NCI/ADR-RES ovarian
UACC-257 melanoma = tested on: UACC-257 melanoma
786-0 renal = tested on: 786-0 renal
IGROV1 ovarian = tested on: IGROV1 ovarian
SF-539 CNS = tested on: SF-539 CNS
PC-3 prostate = tested on: PC-3 prostate
A498 renal = tested on: A498 renal
NCI-H522 lung = tested on: NCI-H522 lung
OVCAR-5 ovarian = tested on: OVCAR-5 ovarian
MCF7 breast = tested on: MCF7 breast
DU-145 prostate = tested on: DU-145 prostate
RXF 393 renal = tested on: RXF 393 renal
HS 578T breast = tested on: HS 578T breast
ACHN renal = tested on: ACHN renal
HL-60(TB) leukemia = tested on: HL-60(TB) leukemia
MDA-MB-231 breast = tested on: MDA-MB-231 breast
NCI-H226 lung = tested on: NCI-H226 lung
KM12 colon = tested on: KM12 colon
LOX IMVI melanoma = tested on: LOX IMVI melanoma
MDA-MB-435 = tested on: MDA-MB-435
K-562 leukemia = tested on: K-562 leukemia
CAKI-1 renal = tested on: CAKI-1 renal
RPMI-8226 leukemia = tested on: RPMI-8226 leukemia
SF-268 CNS = tested on: SF-268 CNS
HT29 colon = tested on: HT29 colon
SF-295 CNS = tested on: SF-295 CNS
COLO 205 colon = tested on: COLO 205 colon
OVCAR-8 ovarian = tested on: OVCAR-8 ovarian
HOP-62 NSCLC = tested on: HOP-62 NSCLC
TK-10 renal = tested on: TK-10 renal
U251 CNS = tested on: U251 CNS
UACC-62 melanoma = tested on: UACC-62 melanoma
SW-620 colon = tested on: SW-620 colon
UO-31 renal = tested on: UO-31 renal
SK-MEL-5 melanoma = tested on: SK-MEL-5 melanoma
MALME-3M melanoma = tested on: MALME-3M melanoma
BT-549 breast = tested on: BT-549 breast
HCT-116 colon = tested on: HCT-116 colon
EKVX NSCLC = tested on: EKVX NSCLC
A549 NSCLC = tested on: A549 NSCLC
MOLT-4 leukemia = tested on: MOLT-4 leukemia
NCI-H460 lung = tested on: NCI-H460 lung
M14 melanoma = tested on: M14 melanoma
HCC-2998 colon = tested on: HCC-2998 colon
T-47D breast = tested on: T-47D breast
OVCAR-3 ovarian = tested on: OVCAR-3 ovarian
SK-OV-3 ovarian = tested on: SK-OV-3 ovarian
SK-MEL-2 melanoma = tested on: SK-MEL-2 melanoma

## CN1CCN(Cc2ccc(NC(=O)c3cncc(C#Cc4cnc5ccc(N)nn45)c3)cc2C(F)(F)F)CC1
SNB-75 CNS
  GI50: 593 nM
  TGI: 3180 nM
HOP-92 NSCLC
  GI50: 138 nM
  TGI: 538 nM
CCRF-CEM leukemia
  GI50: 240 nM
  TGI: 50000 nM
SR leukemia
  GI50: 264 nM
  TGI: 2240 nM
SNB-19 CNS
  GI50: 1680 nM
  TGI: 15300 nM
SK-MEL-28 melanoma
  GI50: 954 nM
  TGI: 2180 nM
OVCAR-4 ovarian
  GI50: 1580 nM
  TGI: 16800 nM
HCT-15 colon
  GI50: 1990 nM
  TGI: 12200 nM
NCI-H23 lung
  GI50: 777 nM
  TGI: 2860 nM
SN12C renal
  GI50: 850 nM
  TGI: 4480 nM
NCI/ADR-RES ovarian
  GI50: 25600 nM
  TGI: 50000 nM
UACC-257 melanoma
  GI50: 1070 nM
  TGI: 3340 nM
786-0 renal
  GI50: 2080 nM
  TGI: 6220 nM
IGROV1 ovarian
  GI50: 1070 nM
  TGI: 4640 nM
SF-539 CNS
  GI50: 288 nM
  TGI: 3260 nM
PC-3 prostate
  GI50: 1330 nM
  TGI: 10800 nM
A498 renal
  GI50: 2720 nM
  TGI: 10600 nM
NCI-H522 lung
  GI50: 234 nM
  TGI: 1270 nM
OVCAR-5 ovarian
  GI50: 1410 nM
  TGI: 9400 nM
MCF7 breast
  GI50: 284 nM
  TGI: 2370 nM
DU-145 prostate
  GI50: 1390 nM
  TGI: 5730 nM
RXF 393 renal
  GI50: 842 nM
  TGI: 1780 nM
HS 578T breast
  GI50: 804 nM
  TGI: 5300 nM
ACHN renal
  GI50: 2440 nM
  TGI: 8150 nM
HL-60(TB) leukemia
  GI50: 306 nM
  TGI: 1550 nM
MDA-MB-231 breast
  GI50: 352 nM
  TGI: 2610 nM
NCI-H226 lung
  GI50: 214 nM
  TGI: 6120 nM
KM12 colon
  GI50: 8.16 nM
  TGI: 1070 nM
LOX IMVI melanoma
  GI50: 510 nM
  TGI: 1280 nM
MDA-MB-435
  GI50: 674 nM
  TGI: 5780 nM
K-562 leukemia
  GI50: 5 nM
  TGI: 18100 nM
CAKI-1 renal
  GI50: 1570 nM
  TGI: 5830 nM
RPMI-8226 leukemia
  GI50: 1490 nM
  TGI: 5090 nM
SF-268 CNS
  GI50: 867 nM
  TGI: 3460 nM
HT29 colon
  GI50: 444 nM
  TGI: 2280 nM
SF-295 CNS
  GI50: 2850 nM
  TGI: 10900 nM
COLO 205 colon
  GI50: 348 nM
  TGI: 1350 nM
OVCAR-8 ovarian
  GI50: 1290 nM
  TGI: 5390 nM
HOP-62 NSCLC
  GI50: 1020 nM
  TGI: 3710 nM
TK-10 renal
  GI50: 1290 nM
  TGI: 2650 nM
U251 CNS
  GI50: 1300 nM
  TGI: 6980 nM
UACC-62 melanoma
  GI50: 1360 nM
  TGI: 5050 nM
SW-620 colon
  GI50: 356 nM
  TGI: 3110 nM
UO-31 renal
  GI50: 5050 nM
  TGI: 12900 nM
SK-MEL-5 melanoma
  GI50: 3730 nM
  TGI: 10300 nM
MALME-3M melanoma
  GI50: 496 nM
  TGI: 1520 nM
BT-549 breast
  GI50: 2070 nM
  TGI: 6050 nM
HCT-116 colon
  GI50: 233 nM
  TGI: 2890 nM
EKVX NSCLC
  GI50: 2630 nM
  TGI: 13300 nM
A549 NSCLC
  GI50: 1620 nM
  TGI: 5890 nM
MOLT-4 leukemia
  GI50: 369 nM
  TGI: 5810 nM
NCI-H460 lung
  GI50: 526 nM
  TGI: 3290 nM
M14 melanoma
  GI50: 690 nM
  TGI: 1570 nM
HCC-2998 colon
  GI50: 1180 nM
  TGI: 5650 nM
T-47D breast
  GI50: 2570 nM
  TGI: 23900 nM
OVCAR-3 ovarian
  GI50: 1670 nM
  TGI: 12600 nM
SK-OV-3 ovarian
  GI50: 2540 nM
  TGI: 25700 nM
SK-MEL-2 melanoma
  GI50: 591 nM
  TGI: 1940 nM

From PubChem BioAssay (NCI)
